# Test results from patent US6166038A, “Aminopyrazole derivatives” (Banyu Pharmaceutical Co., Ltd., priority 1996, dated 2000).
# Target: T1, human NPY Y5 receptor (Homo sapiens, UniProt Q15761)
# T1 construct: expressed in transfected cells; host or cells: COS-7, CHO and LM(tk-)
# T1 sequence (Q15761 1-445): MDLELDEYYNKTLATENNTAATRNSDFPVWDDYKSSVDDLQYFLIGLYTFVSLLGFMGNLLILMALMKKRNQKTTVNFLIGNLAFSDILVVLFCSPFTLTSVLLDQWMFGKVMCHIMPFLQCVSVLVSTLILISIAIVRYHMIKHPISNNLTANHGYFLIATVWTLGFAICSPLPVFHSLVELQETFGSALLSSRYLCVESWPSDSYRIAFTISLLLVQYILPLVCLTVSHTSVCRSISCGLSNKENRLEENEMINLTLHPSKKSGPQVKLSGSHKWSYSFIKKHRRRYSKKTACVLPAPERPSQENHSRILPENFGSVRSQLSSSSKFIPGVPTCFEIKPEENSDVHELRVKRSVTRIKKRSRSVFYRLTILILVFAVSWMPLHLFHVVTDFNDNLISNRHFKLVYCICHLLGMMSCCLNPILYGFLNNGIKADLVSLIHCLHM
# Test: test of inhibition of NPY binding ([125I] peptide YY binding to membranes of NPY Y5 receptor-expressing cells)
# Details: [125I] peptide YY, 20,000 cpm, 25° C., 2 hours, pH 7.4; membranes of transfected cells; read-out: IC50 value (inhibition of specific binding of peptide YY)
# From the text: cDNA Sequence encoding a human NPY Y5 receptor [International Publication Wo 96/16542] was cloned into expression vectors pcDNA3, pRc/RSV (manufactured by Invitrogen) and pCI-neo (manufactured by Promega). Using the cationic lipid method [see Proceedings of the National Academy of Science of the United States of America, vol.84, p.7413 (1987)], host cells COS-7, CHO and LM(tk-) (American Type Culture Collection) were transfected with the thus prepared expression vectors to obtain cells in which the NPY Y5 receptor had been expressed.
# Each of the membrane preparations thus prepared from the cells in which the NPY Y5 receptor had been expressed was incubated together with each compound to be tested and 20,000 cpm of [^125 I] peptide YY (manufactured by Amersham) at 25° C. for 2 hours in an assay buffer solution (25 mM HEPES buffer, pH 7.4, containing 10 mM magnesium chloride, 1 mM phenylmethylsulfonyl fluoride and 0.1% bacitracin) and then, the reaction mixture was filtered through a glass filter GF/C. After washing with 50 mM Tris buffer, pH 7.4, containing 0.3% BSA, radioactivity on the glass filter was measured using a gamma counter. […]
compound,measurement,value
"COc1ccc(-c2cc(NC(=O)C3CCN(c4cccc(Cl)c4)CC3)n[nH]2)cc1 [Example 4, 3-[1-(3-chlorophenyl)piperidin-4-yl]carbonylamino-5-(4-methoxyphenyl)pyrazole]",IC50,39 nM
